From patent publication US20220304953A1, “PHARMACEUTICAL DOSAGE FORM COMPRISING METFORMIN AND CALCIUM CITRATE” (DSM IP ASSETS B.V., priority 2019, published 2022)

How the values were obtained:
[1] = compared to calcium carbonate; cited from earlier work
[2] = Tablet hardness (Krämer UTS4 1, force needed to break a tablet axially); assay type: physicochemical; settings: tablets of example 2 with the named calcium salt, Prosolv SMCC90 binder; in words
Method: For compressing the tablets, a single punch press (Korsch XP-1, available at Korsch, Berlin) was used.
Tablet hardness was then measured using a Krämer UTS4 1 apparatus.
Said four tablet mixtures were compressed into tablets, similar to example 2. Tablet hardness was then measured.
Tablet hardness was measured as described in USP <1217> and EP<2.9.8.> with a Krämer UTS4 1 tester (Kraemer Elektronik GmbH, Darmstadt, Germany). The inventors measured the force needed to break a tablet axially. Presented are the average values of 10 measurements.

| Molecule | bioavailability [1] | tablet hardness (compression profiles, FIG. 1) [2] |
| --- | --- | --- |
| O=C([O-])CC(O)(CC(=O)[O-])C(=O)[O-].O=C([O-])CC(O)(CC(=O)[O-])C(=O)[O-].[Ca+2].[Ca+2].[Ca+2] [calcium citrate] | superior bioavailability than calcium carbonate |  |
| anhydrous calcium citrate |  | a lot worse |
